{
  "source": "patent US20230363954A1",
  "about": "“METHOD FOR MAKING AN ABSORBENT ARTICLE AND ABSORBENT ARTICLE” (The Procter & Gamble Company, priority 2022, published 2023)",
  "target": "T1, Jack Bean Urease (Canavalia ensiformis, UniProt P07374)",
  "T1 construct": "purchased Millipore Sigma U1500",
  "T1 sequence (P07374 whole entry, looked up)": "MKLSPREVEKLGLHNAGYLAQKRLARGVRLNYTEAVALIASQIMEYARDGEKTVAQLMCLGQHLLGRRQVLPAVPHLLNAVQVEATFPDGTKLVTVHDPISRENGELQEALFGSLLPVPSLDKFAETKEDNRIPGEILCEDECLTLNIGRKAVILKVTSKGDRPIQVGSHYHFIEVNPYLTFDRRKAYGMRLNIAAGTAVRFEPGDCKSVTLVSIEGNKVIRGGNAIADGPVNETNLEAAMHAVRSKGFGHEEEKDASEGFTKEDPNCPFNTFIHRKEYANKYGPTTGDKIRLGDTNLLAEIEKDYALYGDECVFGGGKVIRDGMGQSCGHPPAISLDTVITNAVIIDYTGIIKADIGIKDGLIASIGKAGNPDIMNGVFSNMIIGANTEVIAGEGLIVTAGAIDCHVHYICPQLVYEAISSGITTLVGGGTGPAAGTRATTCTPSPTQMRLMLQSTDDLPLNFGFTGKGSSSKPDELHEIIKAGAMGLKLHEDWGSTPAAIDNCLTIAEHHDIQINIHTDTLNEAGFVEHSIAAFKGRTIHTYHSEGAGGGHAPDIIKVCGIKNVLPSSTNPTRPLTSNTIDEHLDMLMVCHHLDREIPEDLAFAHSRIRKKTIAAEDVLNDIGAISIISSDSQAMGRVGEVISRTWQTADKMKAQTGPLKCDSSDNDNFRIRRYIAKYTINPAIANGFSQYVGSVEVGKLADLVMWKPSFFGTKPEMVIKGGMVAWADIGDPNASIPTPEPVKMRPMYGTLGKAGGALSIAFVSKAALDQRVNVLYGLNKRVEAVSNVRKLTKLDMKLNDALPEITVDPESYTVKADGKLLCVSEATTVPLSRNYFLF",
  "type": "biochemical",
  "conditions": "for Urease inhibition (in words): 0.1 g in synthetic urine with urease",
  "procedure": "To test the efficiency of different Green Tea Extracts, three different samples were tested: • Sample 1′: pure EGCG: Cas. […] 84650-60-2, EC no. […] The test procedure per sample and for a reference without Green Tea Extract was the following, all steps were performed at ambient lab temperature (23±1° C.) and atmospheric pressure:\nSynthetic Urine is prepared by dissolving 2% w/w urea, 0.9% w/w sodium chloride, 0.11% w/w magnesium sulfate monohydrate, 0.079% w/w calcium chloride monohydrate in deionized water. Urease stock solution (23.5 U/ml) is made by dissolving Jack Bean Urease (Catalog number U1500, Millipore Sigma, St. Louis, MO, USA, or equivalent) in deionized water.\n67.5 ml of Synthetic urine were added to a beaker and the pH of the Synthetic urine (Urine pH) was determined analogously to the Urease Activity test method described above (Urine pH).\n0.1 g of the corresponding Green Tea Extract—except for the reference sample—were added to the beaker and the solution stirred for 15 min. Afterwards the pH of the solution is determined.\n7.5 ml of the Urease stock solution were added and the pH was monitored, while the stirring of the solution was maintained.\nFrom the values, the difference in pH mediated by Urease was calculated from the difference of the pH of the Synthetic urine and the final pH determined after addition of the Urease stock.",
  "note": "Read-outs that look alike come from different tables or passages of the source.",
  "data": [
    {"smiles": "O=C(O[C@@H]1Cc2c(O)cc(O)cc2O[C@@H]1c1cc(O)c(O)c(O)c1)c1cc(O)c(O)c(O)c1", "note": "[Sample 1′, Epigallocatechin gallate]", "values": [
      {"measurement": "Green Tea pH", "setting": "0.1 g in 67.5 ml Synthetic urine, stirred 15 min, before urease addition", "value": 5.7},
      {"measurement": "Urease inhibition (in words)", "value": "inhibit Urease"},
      {"measurement": "Urease inhibition (in words)", "setting": "listed as EGCG", "value": "less efficient in its pure form"},
      {"measurement": "End pH", "setting": "after adding 7.5 ml Urease stock solution (23.5 U/ml), pH stabilized (typically 15 to 30 min)", "value": 7.7},
      {"measurement": "pH difference", "setting": "final pH minus pH of the Synthetic urine", "value": 1.2}
    ]}
  ]
}
